Laboratory results: patent publication US20060014940A1, “Cloning and characterization of slc26a6, slc26a1, and slc26a2 anion exchangers” (priority 2002, published 2006)

How the values were obtained:
human SLC26A3 (DRA) = biological target: T1, human SLC26A3 (DRA) (Homo sapiens, UniProt P40879); test: Cis-inhibition of 36Cl uptake in oocytes expressing human SLC26A3 (DRA); format: cell-based; conditions: 10 mM anion (FIG. 19)
T1 construct: expressed in transfected cells; host or cells: Xenopus laevis oocytes (SLC26A3-injected)
T1 sequence (P40879 1-764): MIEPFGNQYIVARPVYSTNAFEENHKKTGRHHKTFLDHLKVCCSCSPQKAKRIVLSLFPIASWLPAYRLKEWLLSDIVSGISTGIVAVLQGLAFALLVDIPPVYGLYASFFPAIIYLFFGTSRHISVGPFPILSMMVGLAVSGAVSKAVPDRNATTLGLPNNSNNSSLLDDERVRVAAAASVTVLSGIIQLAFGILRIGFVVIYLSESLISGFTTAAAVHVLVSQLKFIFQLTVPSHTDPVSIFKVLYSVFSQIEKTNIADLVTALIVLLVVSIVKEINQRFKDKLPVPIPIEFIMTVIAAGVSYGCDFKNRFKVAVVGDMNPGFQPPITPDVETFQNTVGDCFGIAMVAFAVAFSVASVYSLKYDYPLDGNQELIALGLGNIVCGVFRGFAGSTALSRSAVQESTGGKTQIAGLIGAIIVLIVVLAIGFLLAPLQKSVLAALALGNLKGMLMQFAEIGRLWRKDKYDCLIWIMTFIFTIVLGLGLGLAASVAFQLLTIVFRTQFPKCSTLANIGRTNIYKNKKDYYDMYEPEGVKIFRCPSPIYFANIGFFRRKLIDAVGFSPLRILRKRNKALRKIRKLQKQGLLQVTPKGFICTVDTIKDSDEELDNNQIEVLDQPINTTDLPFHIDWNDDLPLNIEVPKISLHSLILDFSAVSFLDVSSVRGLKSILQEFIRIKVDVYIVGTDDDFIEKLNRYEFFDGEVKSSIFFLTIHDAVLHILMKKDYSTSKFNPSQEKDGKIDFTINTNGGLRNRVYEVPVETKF
Source text: FIG. 19 depicts cis-inhibition of ^36Cl^− uptake by various anions in oocytes expressing human SLC26A3 (DRA).
The SLC26A6 exchanger is a likely mediator of intestinal oxalate absorption and thus a potential therapeutic target in calcium-oxalate stone disease. Intestinal expression of the SLC26A3 or DRA protein is also robust, in keeping with the genetic role of SLC26A3 in congenital chloride-losing diarrhea. Hoglund, P. et al., 1996. […] Scott, D. A., et al., 1999; Scott, D.A. & Karniski, L. P., 2000.

rat DTDST = biological target: T2, rat DTDST (Rattus norvegicus, UniProt O70531); conditions: Satoh, 1998; cited from earlier work
T2 sequence (O70531 1-739): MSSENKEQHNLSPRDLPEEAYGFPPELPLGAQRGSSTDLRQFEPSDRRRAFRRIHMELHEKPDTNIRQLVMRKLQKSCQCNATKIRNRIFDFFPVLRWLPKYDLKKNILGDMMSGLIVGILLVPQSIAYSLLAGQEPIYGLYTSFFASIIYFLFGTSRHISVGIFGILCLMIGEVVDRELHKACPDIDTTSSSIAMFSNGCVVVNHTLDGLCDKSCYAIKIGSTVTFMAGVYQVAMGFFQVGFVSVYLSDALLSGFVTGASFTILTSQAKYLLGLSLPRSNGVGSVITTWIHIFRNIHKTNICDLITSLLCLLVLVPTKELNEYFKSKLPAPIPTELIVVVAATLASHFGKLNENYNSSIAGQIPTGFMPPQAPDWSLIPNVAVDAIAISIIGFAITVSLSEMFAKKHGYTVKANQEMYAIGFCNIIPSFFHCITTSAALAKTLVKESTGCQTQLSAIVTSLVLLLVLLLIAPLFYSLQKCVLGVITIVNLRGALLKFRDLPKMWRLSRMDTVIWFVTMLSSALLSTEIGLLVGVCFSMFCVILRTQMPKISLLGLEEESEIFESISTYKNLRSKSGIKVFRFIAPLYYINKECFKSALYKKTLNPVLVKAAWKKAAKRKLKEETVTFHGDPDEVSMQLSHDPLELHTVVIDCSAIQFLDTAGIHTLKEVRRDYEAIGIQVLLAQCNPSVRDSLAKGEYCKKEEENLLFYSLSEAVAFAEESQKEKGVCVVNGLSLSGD

O=C(O)C(=O)O [oxalate]
oxalate transport inferred from cis-inhibition of Cl transport (human SLC26A3 (DRA)): minimal if any
cis-inhibition of sulphate transport (rat DTDST): cis-inhibited
